What all share (type): cell-based
One data set concerns the target T1, hPPARδ (Homo sapiens, UniProt Q03181).
T1 construct: expressed in transfected cells; host or cells: CV-1 monkey kidney cells
T1 sequence (Q03181 1-441): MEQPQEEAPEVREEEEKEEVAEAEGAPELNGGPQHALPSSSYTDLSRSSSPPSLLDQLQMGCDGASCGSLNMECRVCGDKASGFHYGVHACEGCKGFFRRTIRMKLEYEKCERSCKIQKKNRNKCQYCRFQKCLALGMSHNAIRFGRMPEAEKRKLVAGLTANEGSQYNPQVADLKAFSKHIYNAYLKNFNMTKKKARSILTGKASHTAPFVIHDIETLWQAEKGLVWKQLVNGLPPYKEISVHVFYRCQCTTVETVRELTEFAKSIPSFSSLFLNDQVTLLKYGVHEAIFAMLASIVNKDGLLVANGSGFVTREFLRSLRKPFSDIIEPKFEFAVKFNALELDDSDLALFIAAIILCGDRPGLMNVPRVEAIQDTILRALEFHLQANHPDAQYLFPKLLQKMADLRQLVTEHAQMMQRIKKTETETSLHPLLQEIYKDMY
The data set can be described thus: In vitro co-transfection (PPRE-luciferase) assay in CV-1 cells, hPPARδ.

The next data set has as its target T2, hPPARγ (Homo sapiens, UniProt P37231).
T2 sequence (P37231 1-505): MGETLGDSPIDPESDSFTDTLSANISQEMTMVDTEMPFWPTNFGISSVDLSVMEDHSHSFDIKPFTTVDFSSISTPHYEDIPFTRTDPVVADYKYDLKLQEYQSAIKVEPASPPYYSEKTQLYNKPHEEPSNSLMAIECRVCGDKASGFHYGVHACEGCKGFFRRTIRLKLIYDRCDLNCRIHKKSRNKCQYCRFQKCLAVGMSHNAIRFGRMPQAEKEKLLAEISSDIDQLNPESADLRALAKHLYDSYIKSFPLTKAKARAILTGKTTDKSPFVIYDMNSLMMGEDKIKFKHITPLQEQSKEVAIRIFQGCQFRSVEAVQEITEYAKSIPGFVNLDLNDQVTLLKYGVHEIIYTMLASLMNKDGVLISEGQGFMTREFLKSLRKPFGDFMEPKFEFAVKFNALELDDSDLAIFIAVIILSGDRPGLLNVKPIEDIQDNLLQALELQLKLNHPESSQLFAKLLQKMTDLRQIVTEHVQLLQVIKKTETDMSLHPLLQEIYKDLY
The data set can be described thus: In vitro co-transfection (PPRE-luciferase) assay in CV-1 cells, hPPARγ. Particulars: 24 h, read-out: Potency (EC50) hPPARγ.

Another data set addresses T3, hPPARα (Homo sapiens, UniProt Q07869).
T3 sequence (Q07869 1-468): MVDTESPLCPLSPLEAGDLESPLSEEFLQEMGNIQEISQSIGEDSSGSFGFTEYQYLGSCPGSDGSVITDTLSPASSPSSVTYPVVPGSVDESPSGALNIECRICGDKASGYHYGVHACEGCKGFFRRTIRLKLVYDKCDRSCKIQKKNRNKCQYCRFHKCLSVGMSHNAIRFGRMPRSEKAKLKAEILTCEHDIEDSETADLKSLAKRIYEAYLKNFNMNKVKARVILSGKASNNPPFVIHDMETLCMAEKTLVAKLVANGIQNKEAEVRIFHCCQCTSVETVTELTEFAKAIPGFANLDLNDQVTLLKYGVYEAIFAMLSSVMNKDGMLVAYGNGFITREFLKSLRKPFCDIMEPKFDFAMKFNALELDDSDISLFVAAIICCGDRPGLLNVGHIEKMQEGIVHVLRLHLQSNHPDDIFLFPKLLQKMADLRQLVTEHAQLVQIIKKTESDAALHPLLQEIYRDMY
As to the kind of experiment: In vitro co-transfection (PPRE-luciferase) assay in CV-1 cells, hPPARα. To be noted: 24 h, read-out: Potency (EC50) hPPARα.

Another data set concerns primary mouse astrocytes. As to the kind of experiment: Cytotoxicity assay (EZ-Cytox) in primary mouse astrocytes. Particulars: up to 30 μM, 24 h.

One may read the EC50 as the concentration at which the effect is half-maximal. Consider `Cc1cc([Se]Cc2[se]c(-c3ccc(C(F)(F)F)cc3)nc2C)ccc1OCC(=O)O` [Compound 5b, {2-Methyl-4-[4-methyl-2-(4-trifluoromethyl-phenyl)-selenazol-5-yl-methylselanyl]-phenoxy}-acetic acid], for which the half-maximal effective concentration (EC50) at hPPARδ (co-transfection assay, CV-1 cells, 24 h, read-out: Potency (EC50) hPPARδ) is 0.0043 µM; on hPPARγ it was over 10 µM; on hPPARα it was over 10 µM. In addition, the “Selectivity index hPPARα/hPPARδ” value on hPPARδ (ratio EC50(hPPARα)/EC50(hPPARδ)) is reported as over 2300. For the same compound, at hPPARδ (ratio EC50(hPPARγ)/EC50(hPPARδ)), the “Selectivity index hPPARγ/hPPARδ” value is on record as over 2300.
Consider `Cc1cc(SCc2sc(-c3ccc(C(F)(F)F)cc3)nc2C)ccc1OCC(=O)O` [GW501516, reference compound], for which the “Cytotoxicity in primary astrocytes” value in the data set on primary mouse astrocytes was “no cytotoxicity”.

These data come from paper PMC11488110 (Theranostics, 2024).
